Here are results for six compounds from paper PMC1925065, “Functional characterization of two melanocortin (MC) receptors in lamprey showing orthology to the MC1 and MC4 receptor subtypes” (BMC Evolutionary Biology, 2007).

Read-outs that look alike come from different tables or passages of the source. Bridge positions count the residues as written; N and C are the ends. Square brackets hold non-standard residues; d marks the D form. Peptide text beside a SMILES is read from it. d2Nal = N[C@H](Cc1ccc2ccccc2c1)C(=O)O; Nle = CCCC[C@H](N)C(=O)O

One test has as its target T1, lamprey MCa receptor (Lampetra fluviatilis, UniProt A6XB56).
T1 sequence (A6XB56 1-341): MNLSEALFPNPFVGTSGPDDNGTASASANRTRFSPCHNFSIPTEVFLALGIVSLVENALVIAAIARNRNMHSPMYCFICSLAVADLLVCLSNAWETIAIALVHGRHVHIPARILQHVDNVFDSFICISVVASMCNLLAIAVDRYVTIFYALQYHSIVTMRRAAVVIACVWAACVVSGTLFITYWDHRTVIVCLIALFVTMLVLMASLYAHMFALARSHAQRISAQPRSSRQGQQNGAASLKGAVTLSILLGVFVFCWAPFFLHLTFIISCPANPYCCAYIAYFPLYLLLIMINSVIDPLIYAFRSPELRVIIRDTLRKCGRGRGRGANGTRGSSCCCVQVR
Put plainly: Radioligand binding assay (saturation and competition, [125I] NDP-MSH), lamprey MCa. Also on record: species or system river lamprey. Conditions: for affinity for lamprey MCa compared to the human MC1 and MC3 receptors: p < 0.01 for α-MSH, γ-MSH, ACTH(1–39). The method, then: HEK-293 (human embryonic kidney) cells with Epstein-Barr nuclear antigen (EBNA) grown to 50–70% confluence were transfected with 10 μg of the construct using FuGENE-6 Transfection Reagent (Roche, Sweden) according to the manufacturers' instruction. The cells were grown in Dulbeccos Modified Eagle Media and F-12 Nutrient Mixture (D-MEM/F-12) (1:1) with GlutaMAX I containing 10% foetal bovine serum, 100 u/ml penicillin, 100 μg/ml streptomycin, 2.5 ug/ml amphotericin B, and 250 μg/ml geneticin G-418 (Invitrogen); in humidified atmosphere of 95% air and 5% CO2 at 37°C. Semi-stable cell lines, expressing target receptor, were obtained by selecting for growth in the presence of 100 μg/ml hygromycin B (Invitrogen), first added 24 hours after transfection.
HEK-293 EBNA cells expressing MC receptors were harvested from plate and resuspended in binding buffer composed of 25 mM HEPES, 2.5 mM CaCl2, 1 mM MgCl2 and 0.2% bacitracin, pH adjusted to 7.4. To obtain the membranes, cells were mechanically homogenized with Ultra Turrax. Cell suspensions were centrifuged for 3 min at 190 g and membranes were collected from the supernatant by centrifugation for 15 min at 20000 g. The pellet was resuspended in binding buffer. The binding was performed in a final volume of 100 μl for 2 h at room temperature. Saturation experiments were carried out with serial dilutions of [^125I] […] Competition experiments were performed with constant 0.6 nM concentration of [^125I] […] The membranes were collected by filtration on Glass Fibre filters, Filtermat A (Perkin Elmer, USA), using a TOMTEC Mach III cell harvester (Orange, CT, USA). The filters were washed with 5 ml per well of 50 mM Tris HCl (pH 7.4) and dried at 50°C. MeltiLex A scintillator sheets (Perkin Elmer, USA) were melted on dried filters and radioactivity was counted with an automatic Microbeta counter 1450 (Perkin Elmer). Binding assays were performed in duplicate with at least three independent experiments. […] The results were analysed with Prism 3.0 software package (GraphPad, USA). Binding affinities were compared with one-way ANOVA Tukey's post-hoc tests.

In a further test the target is human MC1. Conditions: competition, mean ± SEM, cited from earlier work.
For another test, the target named is human MC3. The note with it: competition, mean ± SEM, cited from earlier work.
The next test deals with human MC4. Conditions: competition, mean ± SEM, cited from earlier work.
Another test deals with human MC5. The note with it: competition, mean ± SEM, cited from earlier work.
[1] abbreviates: comparison with previously published human values.

With `CSCC[C@H](NC(=O)[C@H](CO)NC(=O)[C@H](Cc1ccc(O)cc1)NC(=O)[C@@H](N)CO)C(=O)N[C@@H](CCC(=O)O)C(=O)N[C@@H](Cc1c[nH]cn1)C(=O)N[C@@H](Cc1ccccc1)C(=O)N[C@@H](CCCNC(=N)N)C(=O)N[C@@H](Cc1c[nH]c2ccccc12)C(=O)NCC(=O)N[C@@H](CCCCN)C(=O)N1CCC[C@H]1C(=O)N[C@H](C(=O)NCC(=O)N[C@@H](CCCCN)C(=O)N[C@@H](CCCCN)C(=O)N[C@@H](CCCNC(=N)N)C(=O)O)C(C)C` [ACTH (1–17)], the inhibitory constant (Ki) at lamprey MCa receptor was 51.1 ± 3.2 nM; at human MC1 (ref [40]) it was 0.23 ± 0.061 nM; on human MC3 (ref [40]) it was 14 ± 4.5 nM; at human MC4 (ref [40]), 419 ± 62 nM; on human MC5 (ref [40]), 4240 ± 1200 nM. In addition, the “affinity for lamprey MCa compared to the human MC4 and MC5 receptors” value on lamprey MCa receptor (setting [1]) is listed as “clearly higher affinities”. Moreover, at lamprey MCa receptor (setting [1]), the “affinity for lamprey MCa compared to the human MC1 and MC3 receptors” value was “clearly lower affinities”.
For the compound `CSCC[C@H](NC(=O)[C@H](CO)NC(=O)[C@H](Cc1ccc(O)cc1)NC(=O)[C@@H](N)CO)C(=O)N[C@@H](CCC(=O)O)C(=O)N[C@@H](Cc1cnc[nH]1)C(=O)N[C@@H](Cc1ccccc1)C(=O)N[C@@H](CCCNC(=N)N)C(=O)N[C@@H](Cc1c[nH]c2ccccc12)C(=O)NCC(=O)N[C@@H](CCCCN)C(=O)N1CCC[C@H]1C(=O)N[C@H](C(=O)NCC(=O)N[C@@H](CCCCN)C(=O)N[C@@H](CCCCN)C(=O)N[C@@H](CCCNC(=N)N)C(=O)N[C@@H](CCCNC(=N)N)C(=O)N1CCC[C@H]1C(=O)N[C@H](C(=O)N[C@@H](CCCCN)C(=O)N[C@H](C(=O)N[C@@H](Cc1ccc(O)cc1)C(=O)N1CCC[C@H]1C(=O)N[C@@H](CC(N)=O)C(=O)NCC(=O)N[C@@H](C)C(=O)N[C@@H](CCC(=O)O)C(=O)N[C@@H](CC(=O)O)C(=O)N[C@@H](CCC(=O)O)C(=O)N[C@@H](CO)C(=O)N[C@@H](C)C(=O)N[C@@H](CCC(=O)O)C(=O)N[C@@H](C)C(=O)N[C@@H](Cc1ccccc1)C(=O)N1CCC[C@H]1C(=O)N[C@@H](CC(C)C)C(=O)N[C@@H](CCC(=O)O)C(=O)N[C@@H](Cc1ccccc1)C(=O)O)C(C)C)C(C)C)C(C)C` [ACTH (1–39), adrenocorticotropic hormone] (H-SYSMEHFRWGKPVGKKRRPVKVYPNGAEDESAEAFPLEF-OH), the affinity on lamprey MCa receptor corresponds to a Ki of 291 ± 20 nM.
For the compound `CSCC[C@H](NC(=O)[C@H](CO)NC(=O)[C@H](Cc1ccc(O)cc1)NC(=O)[C@@H](N)CO)C(=O)N[C@@H](CCC(=O)O)C(=O)N[C@@H](Cc1c[nH]cn1)C(=O)N[C@@H](Cc1ccccc1)C(=O)N[C@@H](CCCNC(=N)N)C(=O)N[C@@H](Cc1c[nH]c2ccccc12)C(=O)NCC(=O)N[C@@H](CCCCN)C(=O)N1CCC[C@H]1C(=O)N[C@H](C(=O)NCC(=O)N[C@@H](CCCCN)C(=O)N[C@@H](CCCCN)C(=O)N[C@@H](CCCNC(=N)N)C(=O)N[C@@H](CCCNC(=N)N)C(=O)N1CCC[C@H]1C(=O)N[C@H](C(=O)N[C@@H](CCCCN)C(=O)N[C@H](C(=O)N[C@@H](Cc1ccc(O)cc1)C(=O)N1CCC[C@H]1C(=O)N[C@@H](CC(N)=O)C(=O)NCC(=O)N[C@@H](C)C(=O)N[C@@H](CCC(=O)O)C(=O)N[C@@H](CC(=O)O)C(=O)N[C@@H](CCC(=O)O)C(=O)N[C@@H](CO)C(=O)N[C@@H](C)C(=O)N[C@@H](CCC(=O)O)C(=O)N[C@@H](C)C(=O)N[C@@H](Cc1ccccc1)C(=O)N1CCC[C@H]1C(=O)N[C@@H](CC(C)C)C(=O)N[C@@H](CCC(=O)O)C(=O)N[C@@H](Cc1ccccc1)C(=O)O)C(C)C)C(C)C)C(C)C` [ACTH (1–39), adrenocorticotropic hormone] (H-SYSMEHFRWGKPVGKKRRPVKVYPNGAEDESAEAFPLEF-OH; N-terminus and C-terminus assumed), the “affinity for lamprey MCa compared to the human MC4 and MC5 receptors” value on lamprey MCa receptor (setting [1]) is reported as “clearly higher affinities”. The “affinity for lamprey MCa compared to the human MC1 and MC3 receptors” value on lamprey MCa receptor (setting [1]) is “clearly lower affinities”. The Ki on human MC1 (ref [40]) was 3.95 ± 0.67 nM; on human MC3 (ref [40]), 135 ± 22 nM; at human MC4 (ref [40]) it was 2170 ± 120 nM; on human MC5 (ref [40]), 4920 ± 610 nM.
Consider `CCCC[C@@H]1NC(=O)[C@@H](NC(C)=O)CSSC[C@@H](C(N)=O)NC(=O)CNC(=O)[C@H](Cc2c[nH]c3ccccc23)NC(=O)[C@H](CCCNC(=N)N)NC(=O)[C@@H](Cc2ccc3ccccc3c2)NC(=O)[C@H](Cc2c[nH]cn2)NC(=O)[C@H](CCCNC(=N)N)NC1=O` [HS024] (Ac-C[Nle]RH[d2Nal]RWGC-NH2; disulfide 1-9 (inferred); N-terminus and C-terminus assumed), for which the Ki at lamprey MCa receptor is 72.5 ± 1.4 nM; at human MC1 (ref [41]) it was 18.6 ± 3.3 nM; on human MC3 (ref [42]), 15.1 ± 3 nM; at human MC4 (ref [42]), 0.341 ± 0.089 nM; on human MC5 (ref [41]), 3.29 ± 1.15 nM. The “affinity for lamprey MCa compared to the human MC1, MC3, MC4 and MC5 receptors” value at lamprey MCa receptor (setting [1]) is recorded as “clearly lower affinities”.
For the compound `CSCC[C@H](NC(=O)[C@@H](NC(=O)[C@@H](N)Cc1ccc(O)cc1)C(C)C)C(=O)NCC(=O)N[C@@H](Cc1c[nH]cn1)C(=O)N[C@@H](Cc1ccccc1)C(=O)N[C@@H](CCCNC(=N)N)C(=O)N[C@@H](Cc1c[nH]c2ccccc12)C(=O)N[C@@H](CC(=O)O)C(=O)N[C@@H](CCCNC(=N)N)C(=O)N[C@@H](Cc1ccccc1)C(N)=O` [γ1-MSH], the Ki on lamprey MCa receptor is 684 ± 7 nM; on human MC1 (ref [39]) it was 2.68 ± 0.35 nM; on human MC3 (ref [42]), 7.45 ± 2.55 nM; on human MC4 (ref [42]) it was 51800 ± 12000 nM; on human MC5 (ref [39]), 42600 ± 6600 nM. In addition, at lamprey MCa receptor (setting [1]), the “affinity for lamprey MCa compared to the human MC4 and MC5 receptors” value is recorded as “clearly higher affinities”. In addition, the “affinity for lamprey MCa compared to the human MC1 and MC3 receptors” value on lamprey MCa receptor (setting [1]) was “clearly lower affinities”.
Take “β-melanocyte stimulating hormone [β-MSH]”: the “affinity for lamprey MCa compared to the human MC4 and MC5 receptors” value at lamprey MCa receptor (setting [1]) is “clearly higher affinities”. In addition, the “affinity for lamprey MCa compared to the human MC1 and MC3 receptors” value at lamprey MCa receptor (setting [1]) is given as “clearly lower affinities”. Besides, the Ki at human MC1 (ref [38]) is 2.53 ± 0.93 nM; at human MC3 (ref [42]) it was 15.1 ± 3.4 nM; on human MC4 (ref [42]), 387 ± 208 nM; at human MC5 (ref [39]), 14400 ± 1670 nM.

A word on the Ki: it is the dissociation constant of the complex between target and ligand, obtained from inhibition or displacement.
